From patent publication US10913727B2, “Modulators of the integrated stress pathway” (Calico Life Sciences LLC, priority 2016, dated 2021)
pEC50: −log10 of the molar value.

tested on: HEK293T cells carrying the ATF4 luciferase reporter; assay: ATF4-Luc assay, in vitro model of Vanishing Cell White Matter Disease (VWMD); format: cell-based; conditions: Homo sapiens, HEK-293T, 1 μg/mL tunicamycin, 7 hours, One Glo luminescence
Summary of the method: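 Stable HEK293T line with human ATF4 5′-UTR–firefly luciferase reporter treated with 1 μg/mL tunicamycin plus 200 nM compound for 7 h. Luminescence read; EC50 derived.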

Compared with COCc1ccc(C(=O)NC23CC(NC(=O)COc4ccc(Cl)c(F)c4)(C2)C3)o1 [Compound 242, N-{3-[2-(4-chloro-3-fluorophenoxy)acetamido]bicyclo[1.1.1]pentan-1-yl}-5-(methoxymethyl)furan-2-carboxamide], O=C(COc1ccc(Cl)c(F)c1)NC12CC(NC(=O)c3ccc(-c4ccc(Cl)c(F)c4)o3)(C1)C2 [Compound 106, N-{3-[2-(4-chloro-3-fluorophenoxy)acetamido]bicyclo[1.1.1]pentan-1-yl}-5-(4-chloro-3-fluorophenyl)furan-2-carboxamide] is higher in pEC50: 6.60 to 7.30 for the first, greater than 7.30 for the second.

Cc1c(-c2cc(C(=O)NC34CC(NC(=O)COc5ccc(Cl)c(F)c5)(C3)C4)no2)cnn1C [Compound 840, N-{3-[2-(4-chloro-3-fluorophenoxy)acetamido]bicyclo[1.1.1]pentan-1-yl}-5-(1,5-dimethyl-1H-pyrazol-4-yl)-1,2-oxazole-3-carboxamide] and Cc1nn(C)cc1-c1cc(C(=O)NC23CC(NC(=O)COc4ccc(Cl)c(F)c4)(C2)C3)no1 [Compound 865, N-{3-[2-(4-chloro-3-fluorophenoxy)acetamido]bicyclo[1.1.1]pentan-1-yl}-5-(1,3-dimethyl-1H-pyrazol-4-yl)-1,2-oxazole-3-carboxamide] fall in the same range of pEC50: 5.70 to 6.00 for the first, 5.70 to 6.00 for the second.

O=C(COc1ccc(Cl)c(F)c1)NC12CC(NC(=O)c3ccc(F)c(F)c3)(C1)C2 [Compound 514, N-{3-[2-(4-chloro-3-fluorophenoxy)acetamido]bicyclo[1.1.1]pentan-1-yl}-3,4-difluorobenzamide] and N#Cc1ccc(C(=O)NC23CC(NC(=O)COc4ccc(Cl)c(F)c4)(C2)C3)cc1F [Compound 371, N-{3-[2-(4-chloro-3-fluorophenoxy)acetamido]bicyclo[1.1.1]pentan-1-yl}-4-cyano-3-fluorobenzamide] fall in the same range of pEC50: 6.60 to 7.30 for the first, 6.60 to 7.30 for the second.

Compared with O=C(COc1ccc(Cl)c(F)c1)NC12CCC(NC(=O)c3cnon3)(CC1)CC2O (stereo not drawn) [Compound 634, N-{4-[2-(4-chloro-3-fluorophenoxy)acetamido]-3-hydroxybicyclo[2.2.2]octan-1-yl}-1,2,5-oxadiazole-3-carboxamide], CCc1cc(C(=O)NC23CCC(NC(=O)COc4ccc(Cl)c(F)c4)(CC2)C(O)C3)on1 (stereo not drawn) [Compound 515, N-{4-[2-(4-chloro-3-fluorophenoxy)acetamido]-3-hydroxybicyclo[2.2.2]octan-1-yl}-3-ethyl-1,2-oxazole-5-carboxamide] is higher in pEC50: less than 5.70 for the first, greater than 7.30 for the second.

First: Cc1cc(C(=O)NC23CC(NC(=O)COc4ccc(Cl)c(Cl)c4)(C2)C3)on1 [Compound 431, N-{3-[2-(3,4-dichlorophenoxy)acetamido]bicyclo[1.1.1]pentan-1-yl}-3-methyl-1,2-oxazole-5-carboxamide]
Second: Cc1cc(C(=O)NC23CC(NC(=O)COc4ccc(Cl)c(Cl)c4)(C2)C3)n(C)n1 [Compound 441, N-{3-[2-(3,4-dichlorophenoxy)acetamido]bicyclo[1.1.1]pentan-1-yl}-1,3-dimethyl-1H-pyrazole-5-carboxamide]
The pEC50 of the first is lower: 6.60 to 7.30 for the first, greater than 7.30 for the second. The second is the more potent here.

First: Cc1onc(-c2ccccn2)c1C(=O)NC12CC(NC(=O)COc3ccc(Cl)c(F)c3)(C1)C2 [Compound 804, N-{3-[2-(4-chloro-3-fluorophenoxy)acetamido]bicyclo[1.1.1]pentan-1-yl}-5-methyl-3-(pyridin-2-yl)-1,2-oxazole-4-carboxamide]
Second: O=C(COc1ccc(Cl)c(F)c1)NC12CC(NC(=O)c3cnc4[nH]ccc4c3)(C1)C2 [Compound 746, N-{3-[2-(4-chloro-3-fluorophenoxy)acetamido]bicyclo[1.1.1]pentan-1-yl}-1H-pyrrolo[2,3-b]pyridine-5-carboxamide]
The pEC50 of the first is lower: less than 5.70 for the first, 6.60 to 7.30 for the second. The second is the more potent here.

First: Cc1ncsc1C(=O)NC12CC(NC(=O)COc3ccc(Cl)c(F)c3)(C1)C2 [Compound 558, N-{3-[2-(4-chloro-3-fluorophenoxy)acetamido]bicyclo[1.1.1]pentan-1-yl}-4-methyl-1,3-thiazole-5-carboxamide]
Second: Cc1cncc(C(=O)NC23CC(NC(=O)COc4ccc(Cl)c(F)c4)(C2)C3)n1 [Compound 650, N-{3-[2-(4-chloro-3-fluorophenoxy)acetamido]bicyclo[1.1.1]pentan-1-yl}-6-methylpyrazine-2-carboxamide]
The pEC50 of the first is lower: 5.70 to 6.00 for the first, 6.60 to 7.30 for the second. The second is the more potent here.

First: O=C(COc1ccc(Cl)c(F)c1)NC12CCC(NC(=O)c3ccccn3)(CC1)C(O)C2 (stereo not drawn) [Compound 167, N-{4-[2-(4-chloro-3-fluorophenoxy)acetamido]-2-hydroxybicyclo[2.2.2]octan-1-yl}pyridine-2-carboxamide]
Second: Cc1noc(C)c1C(=O)NC12CCC(NC(=O)COc3ccc(Cl)c(F)c3)(CC1)CC2O (stereo not drawn) [Compound 216, N-{4-[2-(4-chloro-3-fluorophenoxy)acetamido]-2-hydroxybicyclo[2.2.2]octan-1-yl}-3,5-dimethyl-1,2-oxazole-4-carboxamide]
The pEC50 of the first is higher: 6.60 to 7.30 for the first, less than 5.70 for the second.

CCc1cnc(C(=O)NC23CCC(NC(=O)COc4ccc(Cl)c(F)c4)(C2)C3)cn1 [Compound 712, N-{4-[2-(4-chloro-3-fluorophenoxy)acetamido]bicyclo[2.1.1]hexan-1-yl}-5-ethylpyrazine-2-carboxamide] and Cc1cc(C(=O)NC23CCC(NC(=O)COc4ccc(Cl)c(F)c4)(C2)C3)sn1 [Compound 710, N-{4-[2-(4-chloro-3-fluorophenoxy)acetamido]bicyclo[2.1.1]hexan-1-yl}-3-methyl-1,2-thiazole-5-carboxamide] fall in the same range of pEC50: 6.00 to 6.60 for the first, 6.00 to 6.60 for the second.

Cc1ccn2c(=O)c(C(=O)NC34CC(NC(=O)COc5ccc(Cl)c(F)c5)(C3)C4)cnc2c1 [Compound 314, N-{3-[2-(4-chloro-3-fluorophenoxy)acetamido]bicyclo[1.1.1]pentan-1-yl}-8-methyl-4-oxo-4H-pyrido[1,2-a]pyrimidine-3-carboxamide] and Cn1ncc2cccc(C(=O)NC34CC(NC(=O)COc5ccc(Cl)c(F)c5)(C3)C4)c21 [Compound 786, N-{3-[2-(4-chloro-3-fluorophenoxy)acetamido]bicyclo[1.1.1]pentan-1-yl}-1-methyl-1H-indazole-7-carboxamide] cannot be ordered by pEC50: less than 5.70 for the first, less than 5.70 for the second.

Cc1nn(C)c2ncnc(NC34CC(NC(=O)COc5ccc(Cl)c(F)c5)(C3)C4)c12 [Compound 435, 2-(4-chloro-3-fluorophenoxy)-N-{3-[(1,3-dimethyl-1H-pyrazolo[3,4-d]pyrimidin-4-yl)amino]bicyclo[1.1.1]pentan-1-yl}acetamide] and COc1ncnc(OC)c1C(=O)NC12CC(NC(=O)COc3ccc(Cl)c(F)c3)(C1)C2 [Compound 118, N-{3-[2-(4-chloro-3-fluorophenoxy)acetamido]bicyclo[1.1.1]pentan-1-yl}-4,6-dimethoxypyrimidine-5-carboxamide] cannot be ordered by pEC50: less than 5.70 for the first, less than 5.70 for the second.

First: O=C(COc1ccc(Cl)c(F)c1)NC12CC(NC(=O)c3cc(C4CC4)on3)(C1)C2 [Compound 256, N-{3-[2-(4-chloro-3-fluorophenoxy)acetamido]bicyclo[1.1.1]pentan-1-yl}-5-cyclopropyl-1,2-oxazole-3-carboxamide]
Second: Cc1nc(C(=O)NC23CCC(NC(=O)COc4ccc(Cl)c(Cl)c4)(CC2)[C@@H](O)C3)cs1 [Compound 701, N-{(3S)-4-[2-(3,4-dichlorophenoxy)acetamido]-3-hydroxybicyclo[2.2.2]octan-1-yl}-2-methyl-1,3-thiazole-4-carboxamide]
The pEC50 of the first is lower: 6.00 to 6.60 for the first, 6.60 to 7.30 for the second. The second is the more potent here.
